# Experimental data reported in paper PMC9930359, “Cytotoxicity of the methanol extracts and compounds of Brucea antidysenterica (Simaroubaceae) towards multifactorial drug-resistant human cancer cell lines” (BMC Complementary Medicine and Therapies, 2023).
# What was measured:
# CCRF-CEM leukemia cells = test: Resazurin reduction assay (RRA), cytotoxicity; format: cell-based; conditions: Homo sapiens, 72 h
# Text: (§3) In this work, 9 cancer cell lines with various drug resistance patterns as well as AML12 hepatocytes as normal control cell line were used. […] The AML12 hepatocytes were used for the comparison of the activities of the samples with HepG2 [40]. […] The RPMI-1640 medium was used for the culture of CCRF-CEM and CEM/ADR5000 cells whilst DMEM medium was used for carcinoma cells. The culture media were supplemented (complete medium) with 10% fetal bovine serum and 1% penicillin/streptomycin (Invitrogen, Eggenstein, Germany). […] To maintain the resistance phenotype of the resistant carcinoma cell lines such as MDA-MB-231/BCRP and HCT116 p53^−/−, and U87MG.ΔEGFR cells, the complete DMEM medium containing geneticin at 800 ng/ml and 400 µg/ml, respectively were used [41, 42].
# (§4) Cells were cultured in a standard condition consisted of a humidified 5% CO2 atmosphere and an incubation temperature of 37 °C. The tested concentration ranges were 0.63—80 µg/mL for the botanicals and 0.78—100 µM for phytochemicals. The incubation time of the treated cells was 72 h, and the fluorescence was measured with Infinite M2000 Pro™ plate reader (Tecan, Crailsheim, Germany). The wavelengths used were 544 nm for the excitation and 590 nm for the emission. […] The degree of resistance (D.R.) was set as the ratio of the IC50 values of samples in the resistant cell line vs that of corresponding sensitive cell line. The selectivity index (S.I.) was the ratio of the IC50 value of AML12 hepatocytes vs. that of HepG2 cells [13, 48].
# CEM/ADR5000 cells = test: Resazurin reduction assay (RRA), cytotoxicity; format: cell-based, human; conditions: for IC50: Homo sapiens, CEM/ADR5000, 72 h; for Degree of resistance (D.R.): ratio of IC50 CEM/ADR5000 vs CCRF-CEM
# Method: (§5) The RPMI-1640 medium was used for the culture of CCRF-CEM and CEM/ADR5000 cells whilst DMEM medium was used for carcinoma cells. The culture media were supplemented (complete medium) with 10% fetal bovine serum and 1% penicillin/streptomycin (Invitrogen, Eggenstein, Germany). […] To maintain the resistance phenotype of the resistant carcinoma cell lines such as MDA-MB-231/BCRP and HCT116 p53^−/−, and U87MG.ΔEGFR cells, the complete DMEM medium containing geneticin at 800 ng/ml and 400 µg/ml, respectively were used [41, 42].
# as §4
# MDA-MB-231-pcDNA cells = test: Resazurin reduction assay (RRA), cytotoxicity; format: cell-based; conditions: Homo sapiens, 72 h
# Text: as §3, §4
# HCT116 p53+/+ cells = test: Resazurin reduction assay (RRA), cytotoxicity; format: cell-based; conditions: Homo sapiens, HCT-116, 72 h
# Text: as §3, §4
# HCT116 p53−/− cells = test: Resazurin reduction assay (RRA), cytotoxicity; format: cell-based, human; conditions: for IC50: Homo sapiens, HCT-116, HCT116 p53−/−, 72 h; for Degree of resistance (D.R.): ratio of IC50 HCT116 p53−/− vs HCT116 p53+/+
# Method: as §5, §4
# U87MG cells = test: Resazurin reduction assay (RRA), cytotoxicity; format: cell-based; conditions: Homo sapiens, U-87 MG, 72 h
# Text: as §3, §4
# U87MG.ΔEGFR cells = test: Resazurin reduction assay (RRA), cytotoxicity; format: cell-based, human; conditions: for IC50: Homo sapiens, U87MG.ΔEGFR, 72 h; for Degree of resistance (D.R.): ratio of IC50 U87.MGΔEGFR vs U87.MG
# Method: as §5, §4
# HepG2 cells = test: Resazurin reduction assay (RRA), cytotoxicity; format: cell-based; conditions: Homo sapiens, HepG2, 72 h
# Text: as §3, §4
# AML12 hepatocytes = test: Resazurin reduction assay (RRA), cytotoxicity on normal hepatocytes; format: cell-based; conditions: for IC50: Mus musculus, AML12 normal hepatocytes, 72 h; for Selectivity index (S.I.): ratio of IC50 in AML12 vs IC50 in HepG2 cells
# Method: as §5, §4
# CCRF-CEM cells [1] = test: Cell cycle distribution by flow cytometry (PI staining); format: cell-based, human
# Method: The modification of the cell cycle distribution of CCRF-CEM induced by the botanicals BAL, the flavonolignan 2, the control drug, doxorubicin, or the solvent control DMSO was determined by flow cytometry under the previously reported work conditions. BAL and compound 2 were applied to CCRF-CEM cells (1 ml; 1 × 10^6 cells) at their ¼ IC50, ½ IC50, IC50, and 2 × IC50 values. The whole was then incubated for 24 h as earlier indicated followed by the analysis of the cell cycle distribution with a BD Accury C6 Flow Cytometer (BD Biosciences, Heidelberg, Germany). Assays were performed three times in triplicates.
# CCRF-CEM cells [2] = test: Apoptosis by annexin V/PI staining and flow cytometry; format: cell-based, human; conditions: 2 x IC50, 24 h
# Text: Afterward, apoptosis detection was undertaken with a fluorescein isothiocynate (FITC)-conjugated annexin V/PI assay kit (eBioscience™ Annexin V; Invitogen, San Diego, USA). The measurement was done using BD Accury C6 Flow Cytometer (BD Biosciences) under experimental conditions previously reported. The assays were done thrice independently with three repetitions each.
# [3] = system: caspase 8 in CCRF-CEM cells; test: Caspase-Glo assay; format: cell-based, human; conditions: 2 × IC50, 6 h
# Method: (§1) The activity of caspases in CCRF-CEM cells treated with BAL and the flavonolignan 2 was determined by Caspase-Glo assay. […] The whole was then incubated for 6 h (standard culture conditions) and the activity of caspases was detected by spectrophotometry as previously described.
# [4] = system: caspase 9 in CCRF-CEM cells; test: Caspase-Glo assay; format: cell-based, human; conditions: 2 × IC50, 6 h
# Method: as §1
# CCRF-CEM cells [5] = test: Mitochondrial membrane potential (MMP), JC-1 staining, flow cytometry; format: cell-based, human; conditions: 2 × IC50, 24 h
# Method: (§2) The modification of the MMP as well as the ROS levels after the application of BAL, and flavonolignan 2 at ¼ IC50, ½ IC50, IC50, and 2 × IC50 to CCRF-CEM cells (1 × 10^6) was performed by flow cytometry. DMSO was used as solvent control while valinomycin served as a positive control. The cells were incubated for 24 h and further stained for 30 min with JC-1 [45] and measured (1 × 10^4 cells) in an LSR-Fortessa FACS analyzer (Becton–Dickinson). For ROS determination, CCEF-CEM cells were similarly treated BAL, the flavonolignan 2, hydrogen peroxide (H2O2; positive control), DMSO (solvent control) as in the MMP analysis, then incubated for 24 h. They were further stained with H2DCFH-DA and measured (1 × 10^4 cells) in an LSR-Fortessa FACS analyzer.
# CCRF-CEM cells [6] = test: Reactive oxygen species (ROS), H2DCFH-DA staining, flow cytometry; format: cell-based, human
# Method: as §2
# nine cancer cell lines = test: RRA cytotoxicity, summary over the panel; format: cell-based, human; conditions: number out of 9 cancer cell lines
# Text: as §3
# Cells were cultured in a standard condition consisted of a humidified 5% CO2 atmosphere and an incubation temperature of 37 °C. The tested concentration ranges were 0.63—80 µg/mL for the botanicals and 0.78—100 µM for phytochemicals. The incubation time of the treated cells was 72 h, and the fluorescence was measured with Infinite M2000 Pro™ plate reader (Tecan, Crailsheim, Germany). The wavelengths used were 544 nm for the excitation and 590 nm for the emission. […] The degree of resistance (D.R.) was set as the ratio of the IC50 values of samples in the resistant cell line vs that of corresponding sensitive cell line. […]
# [7] = system: 697 pre-B acute lymphoblastic leukemia cell line; design: method as in PMID 23280566; conditions: 697 pre-B ALL ref 59; cited from earlier work
# L-1210 leukemia cells = system: L-1210 leukemia cells; design: method as in PMID 1800632; conditions: murine L-1210 ref 60; cited from earlier work
# Tmolt3 leukemia cells = system: Tmolt3 leukemia cells; design: method as in PMID 1800632; conditions: Tmolt3 ref 60; cited from earlier work
# [8] = system: KB nasopharynx cancer cells; design: method as in PMID 1800632; conditions: KB ref 60; cited from earlier work
# [9] = system: S-480 colon adenocarcinoma; design: method as in PMID 1800632; conditions: S-480 ref 60; cited from earlier work
# [10] = system: TE-418 osteosarcoma cells; design: method as in PMID 1800632; conditions: TE-418 ref 60; cited from earlier work
# HeLa-S3 uterine cells = system: HeLa-S3 uterine cells; design: method as in PMID 1800632; conditions: HeLa-S3 ref 60; cited from earlier work
# [11] = system: MB-9812 lung cancer cells; design: method as in PMID 1800632; conditions: MB-9812 ref 60; cited from earlier work
# SW480 colon cancer cells = system: SW480 colon cancer cells; design: method as in PMID 24018191; conditions: SW480 ref 61; cited from earlier work
# MDA-MB-231-BCRP cells = test: Resazurin reduction assay (RRA), cytotoxicity; conditions: for IC50: Homo sapiens, MDA-MB-231/BCRP, 72 h; for Degree of resistance (D.R.): ratio of IC50 MDA-MB-231-BCRP vs MDA-MB-231-pcDNA
# Method: as §5, §4
structure (smiles),measurement,setting,value
"COc1cc([C@H]2Oc3cc(-c4cc(=O)c5c(O)cc(O)cc5o4)ccc3O[C@@H]2CO)ccc1O [Compound 2, hydnocarpin]",IC50,CCRF-CEM leukemia cells,4.28 ± 0.31 µM
same,IC50,CEM/ADR5000 cells,3.07 ± 0.18 µM
same,Degree of resistance (D.R.),CEM/ADR5000 cells,0.72
same,IC50,MDA-MB-231-pcDNA cells,4.07 ± 0.37 µM
same,IC50,HCT116 p53+/+ cells,11.4 ± 0.98 µM
same,IC50,HCT116 p53−/− cells,6.74 ± 0.33 µM
same,Degree of resistance (D.R.),HCT116 p53−/− cells,0.59
same,IC50,U87MG cells,9.29 ± 0.73 µM
same,IC50,U87MG.ΔEGFR cells,5.42 ± 0.44 µM
same,Degree of resistance (D.R.),U87MG.ΔEGFR cells,0.58
same,IC50,HepG2 cells,2.73 ± 0.19 µM
same,IC50,AML12 hepatocytes,51.2 ± 3.2 µM
same,cells in sub-G0/G1 phase,"CCRF-CEM cells [1]; 1/4 × IC50, 24 h",3.41 ± 0.2%
same,cells in sub-G0/G1 phase,"CCRF-CEM cells [1]; 2 × IC50, 24 h",38.40 ± 2.6%
same,Q2-LR: early apoptotic cells annexin (+)/PI (-),CCRF-CEM cells [2],9.4 ± 0.8%
same,Q2-UR: annexin V (+)/PI (+) late apoptotic or necrotic cells,CCRF-CEM cells [2],18.5 ± 1.3%
same,increase of activity of caspase 8,[3],2.12 fold
same,increase of activity of caspase 9,[4],2.67 fold
same,Q1: cells with undamaged (intact) MMP,CCRF-CEM cells [5],10.4%
same,Q2: cells with MMP loss,CCRF-CEM cells [5],70.5%
same,cells with disrupted MMP (Q3 and Q4),CCRF-CEM cells [5],19.1%
same,ROS levels in treated cells,"CCRF-CEM cells [6]; 1/4 × IC50, 24 h",6.00%
same,ROS levels in treated cells,"CCRF-CEM cells [6]; 2 × IC50, 24 h",49.00%
same,cancer cell lines with IC50 ≤ 10 μM,nine cancer cell lines,8/9
same,melting point,,261 to 263 °C
same,IC50,[7],8.7 µM
same,IC50,L-1210 leukemia cells,3.65 µg/mL
same,IC50,Tmolt3 leukemia cells,32.94 µg/mL
same,IC50,[8],1.15 µg/mL
same,IC50,[9],2.00 µg/mL
same,IC50,[10],2.14 µg/mL
same,IC50,HeLa-S3 uterine cells,2.02 µg/mL
same,IC50,[11],8.18 µg/mL
same,IC50,SW480 colon cancer cells,20.3 µM
same,IC50,MDA-MB-231-BCRP cells,6.65 ± 0.24 µM
same,Degree of resistance (D.R.),MDA-MB-231-BCRP cells,1.63
"C[C@@H](O)C1CCC2C3CC=C4C[C@@H](O[C@@H]5OC[C@H](O)[C@H](O)[C@H]5O)CC[C@]4(C)C3CC[C@@]21C (stereo partly drawn) [Compound 3, (20R)-O-(3)-α-L-arabinopyranosyl-pregn-5-en-3β,20-diol]",IC50,CCRF-CEM leukemia cells,28.4 ± 1.76 µM
same,IC50,CEM/ADR5000 cells,73.9 ± 5.32 µM
same,Degree of resistance (D.R.),CEM/ADR5000 cells,2.60
same,IC50,MDA-MB-231-pcDNA cells,> 100 µM
same,IC50,HCT116 p53+/+ cells,> 100 µM
same,IC50,HCT116 p53−/− cells,50.5 ± 3.81 µM
same,Degree of resistance (D.R.),HCT116 p53−/− cells,< 0.50
same,IC50,U87MG cells,> 100 µM
same,IC50,U87MG.ΔEGFR cells,> 100 µM
same,IC50,HepG2 cells,85.2 ± 5.7 µM
same,IC50,AML12 hepatocytes,> 100 µM
same,Selectivity index (S.I.),AML12 hepatocytes,> 1.17
same,melting point,,258 to 260 °C
same,IC50,MDA-MB-231-BCRP cells,> 100 µM
"COc1cccc2c1C(=O)c1c(O)c3c(c(O)c1C2=O)C[C@@](O)(C(=O)CO)C[C@@H]3O[C@H]1C[C@H](N)[C@H](O)[C@H](C)O1 [Doxorubicin, reference compound]",IC50,CCRF-CEM leukemia cells,0.02 µM
same,IC50,CCRF-CEM leukemia cells; Table 2,0.02 µg/mL
same,IC50,CEM/ADR5000 cells; Table 2,123 ± 10.9 µg/mL
same,Degree of resistance (D.R.),CEM/ADR5000 cells,"6,683.00"
same,IC50,MDA-MB-231-pcDNA cells; Table 2,0.13 ± 0.01 µg/mL
same,IC50,HCT116 p53−/− cells; Table 2,1.78 ± 0.08 µg/mL
same,Degree of resistance (D.R.),HCT116 p53−/− cells,3.73
same,IC50,U87MG cells; Table 2,0.26 ± 0.03 µg/mL
same,IC50,U87MG.ΔEGFR cells; Table 2,0.98 ± 0.07 µg/mL
same,Degree of resistance (D.R.),U87MG.ΔEGFR cells,3.79
same,IC50,HepG2 cells; Table 2,4.56 ± 0.48 µg/mL
same,IC50,AML12 hepatocytes; Table 2,> 50 µg/mL
same,IC50,MDA-MB-231-BCRP cells,0.79 ± 0.08 µg/mL
same,Degree of resistance (D.R.),MDA-MB-231-BCRP cells,6.14
"CC(C)=CC(=O)c1c[nH]c2ccccc12 [Compound 1, 3, (3-(3-methyl-1-oxo-2-butenyl))1H indole]",IC50,CCRF-CEM leukemia cells,19.1 ± 1.56 µM
same,IC50,CEM/ADR5000 cells,32 ± 2.05 µM
same,Degree of resistance (D.R.),CEM/ADR5000 cells,1.68
same,IC50,MDA-MB-231-pcDNA cells,13.4 ± 0.93 µM
same,IC50,HCT116 p53+/+ cells,23.9 ± 2.32 µM
same,IC50,HCT116 p53−/− cells,36.4 ± 3.04 µM
same,Degree of resistance (D.R.),HCT116 p53−/− cells,1.53
same,IC50,U87MG cells,24.2 ± 1.16 µM
same,IC50,U87MG.ΔEGFR cells,36.3 ± 3.01 µM
same,Degree of resistance (D.R.),U87MG.ΔEGFR cells,1.50
same,IC50,HepG2 cells,39.9 ± 2.84 µM
same,IC50,AML12 hepatocytes,> 100 µM
same,Selectivity index (S.I.),AML12 hepatocytes,> 2.50
same,IC50,MDA-MB-231-BCRP cells,47.5 ± 2.75 µM
same,Degree of resistance (D.R.),MDA-MB-231-BCRP cells,3.54
"CC(C)(O)[C@@H](O)Cc1cn([C@@H]2O[C@H](CO)[C@@H](O)[C@H](O)[C@H]2O)c2ccccc12 [Compound 7, 3-(2’,3’-dihydroxy-3’-méthylbutyl)-1N-β-glucopyranosylindole]",IC50,CCRF-CEM leukemia cells,20.4 ± 0.94 µM
same,IC50,CEM/ADR5000 cells,> 100 µM
same,Degree of resistance (D.R.),CEM/ADR5000 cells,> 4.91
same,IC50,MDA-MB-231-pcDNA cells,> 100 µM
same,IC50,HCT116 p53+/+ cells,> 100 µM
same,IC50,HCT116 p53−/− cells,> 100 µM
same,IC50,U87MG cells,> 100 µM
same,IC50,U87MG.ΔEGFR cells,> 100 µM
same,IC50,HepG2 cells,> 100 µM
same,IC50,AML12 hepatocytes,> 100 µM
same,melting point,,209 to 211 °C
same,IC50,MDA-MB-231-BCRP cells,> 100 µM
